{"source": "paper PMC6715681", "about": "“A high-throughput screen to identify novel synthetic lethal compounds for the treatment of E-cadherin-deficient cells” (Scientific Reports, 2019)", "test_system": "MCF10A WT and MCF10A CDH1^−/− cells", "assay": "Single-point confirmation screen (10 μM, CTB, 384-well), viability differential between isogenic lines", "type": "cell-based, human", "details": "averaged between three biological replicates, Supplementary Table 2", "description": "In the single-point confirmation screen, compounds that preferentially harm MCF10A CDH1^−/− cells compared to the wild-type cells were now identified. Three biological replicates were performed for each of the isogenic cell lines at a single-point (10 μM) in 384-well plates. All assay plates had acceptable Z’ values above 0.4 and 23 out of 48 plates had values above 0.6. The POC R^2 correlation between the three biological replicates for the two isogenic cell lines were all above 0.8 (data not shown). A cell viability differential of ‘MCF10A WT POC – MCF10A CDH1^−/− POC’ was used to select hits. An arbitrary threshold for the mean differential of >8.5% was chosen in order to maximize the number of hits being screened in the subsequent stages and to reduce false negatives.\nTo incorporate a measure of the variability between replicates of the screen into the hit selection process, a further requirement was included of a minimum of 2/3 biological replicates having viability differentials >8.5%. This removed a further 52 compounds shown in blue with only one out of three biological replicates crossing the Y = X-8.5 line independent of the mean. In total, 256 compounds were above the hit selection threshold, thereby preferentially killing E-cadherin negative cells. The mean POC differential of the 256 hits was 17.6% +/− 7.1 (+/−SD), with the highest being 48% for SLEC-1 (Synthetic Lethal E-Cadherin compound 1). […] The resulting 256 SL compounds were then assayed in an 11-point screen for EC50 determination.\nMCF10A WT and MCF10A CDH1^−/− cells were seeded into Corning black walled, clear bottom 384-well plates (assay plates) using a multidrop 384 reagent dispenser (Thermo Fisher Scientific) and a total volume of 50 μL per well.\nAs we have shown MCF10A CDH1^−/− cells have a prolonged lag to log phase growth of around 24 hours, in order to achieve a similar confluence at 72 hours post seeding MCF10A WT and MCF10A CDH1^−/− cell lines were seeded at 600 cells/well and 800 cells/well, respectively. […] At 72 hours post seeding, plates were removed from the incubator and left for 30 minutes at RT to equalise the temperature across all wells of the plates and reduce fluorescence-based edge effects before reading on an EnVision (PerkinElmer) at 550 nm excitation and 590 nm emission to quantify cell viability.\nThe coRFU values were then used to calculate the normalized readouts of percent of controls (Eq. 3) and the robust Z score (Eqs 4,5), where doxorubicin refers to an EC80 dose and DMSO was 0.2% v/v.3 coPOC=100×(SamplecoRFU−x¯doxorubicincoRFU)/(x¯DMSOcoRFU−x¯doxorubicincoRFU) 4 MAD=median([…]) 5 CorrectedrobustZscore=(SamplecoRFU−platemediancoRFU)/MAD", "data": [{"smiles": "COc1ccc2nc(C)cc(NCc3ccc(F)cc3)c2c1", "note": "[SLEC-11, N-(4-Fluorobenzyl)-6-methoxy-2-methylquinolin-4-amine]", "values": [{"measurement": "Differential at 1-pt", "value": 17.42}]}]}
